Experimental data from patent US6930106B2, “Inhibitors of HCV NS5B polymerase” (Pharmacia & UpJohn Company, priority 2002, dated 2005).
Structures can show the parent of a compound that is named as a salt.

Molecular target: HCV NS5b RNA dependent RNA polymerase (Hepatitis C virus genotype 1a, UniProt P27958)
Test: HCV NS5b RNA dependent RNA polymerase inhibition assay (3H-GTP incorporation, scintillation proximity)
Type: biochemical
Conditions: inhibition of HCV NS5b polymerase activity; Table 2; read-out: concentration in micromolar required for 50% inhibition
Protocol: Compounds of the present invention are evaluated for inhibition of HCV NS5b RNA dependent RNA polymerase activity in assays comprised of a suitable buffer (e.g. 20 mM Tris-HCl pH 7.6), primed or unprimed RNA templates, GTP, ATP, CTP, and UTP, MnCl2 or MgCl2, and reducing agent such as 10 mM dithiothreitol or 2-mercaptoethanol. The assay buffer may contain salts such as ammonium acetate, KCl, or NaCl, and nonionic or zwitterionic detergents such as Tween or CHAPS. The incorporation of nucleotides into the complementary RNA strand may be monitored by the incorporation of radiolabeled NTP (e.g. ^3H labeled GTP). Suitable RNA templates for de novo initiation in the presence of 20-50 μM GTP or ATP are the homopolymers poly rC and poly rU, respectively. Heteropolymer RNA templates with 1-3 cytidine (C) bases or 1-3 uridine (U) bases at the 3′ terminus of the template may also be used for de novo initiation. Primed RNA templates such as poly rC primed with oligo rG or oligo dG, and poly rA primed with oligo rU may also be used to detect polymerase activity. The primers may be any length greater than 10 bases. A biotin residue may be added to the 5′ end of the template or the 5′ end of the primer to capture the template and the newly synthesized, complementary strand on avidin coated spheres. […]

Chain of HCV NS5b RNA dependent RNA polymerase (P27958 2421-3011): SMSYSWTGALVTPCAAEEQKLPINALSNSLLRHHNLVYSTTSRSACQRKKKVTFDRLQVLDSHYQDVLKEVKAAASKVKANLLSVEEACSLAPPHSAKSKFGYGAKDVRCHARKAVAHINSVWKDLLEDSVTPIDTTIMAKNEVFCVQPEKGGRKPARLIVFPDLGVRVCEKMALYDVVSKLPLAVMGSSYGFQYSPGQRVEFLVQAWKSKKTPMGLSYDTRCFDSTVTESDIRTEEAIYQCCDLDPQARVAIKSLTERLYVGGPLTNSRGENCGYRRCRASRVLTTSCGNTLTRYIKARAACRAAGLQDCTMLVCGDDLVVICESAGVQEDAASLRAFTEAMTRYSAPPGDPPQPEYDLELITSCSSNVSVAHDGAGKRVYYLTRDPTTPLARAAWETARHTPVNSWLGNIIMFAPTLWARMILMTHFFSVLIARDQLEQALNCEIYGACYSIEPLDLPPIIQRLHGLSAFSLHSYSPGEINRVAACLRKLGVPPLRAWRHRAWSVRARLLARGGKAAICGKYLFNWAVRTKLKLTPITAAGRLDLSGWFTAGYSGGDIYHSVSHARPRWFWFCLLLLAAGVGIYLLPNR

| IC50 [µM] | Compound |
| --- | --- |
| 1.42 | NCc1ccc(Nc2ccc(C(F)(F)F)cc2NC(=O)c2cc(Cl)c(Cl)cc2C(=O)O)cc1 [i., 2-[[[2-[[4-(Aminomethyl)phenyl]amino]-5-(trifluoromethyl)phenyl]amino]carbonyl]-4,5-dichlorobenzoic acid monohydrochloride] |
| 1.74 | N#Cc1ccc(Nc2ccc(C(F)(F)F)cc2NC(=O)c2ccccc2C(=O)O)cc1 [xvii., 2-({[2-[(4-cyanophenyl)amino]-5-(trifluoromethyl)phenyl]amino}carbonyl)benzoic acid] |
